Data as given in ChEMBL document CHEMBL3885881, “DrugMatrix”.

Species on record: Rattus norvegicus
Test: DrugMatrix - Regimen: Daily Repeat
Format: toxicity, organism-based, Sprague-Dawley
Design: regimen Daily Repeat, gender Male, age 6-8 weeks
Details: in vivo, po, route oral GAVAGE, vehicle 100 % WATER; for ABSOLUTE BASOPHIL / ABSOLUTE EOSINOPHIL / ABSOLUTE LYMPHOCYTE / ABSOLUTE MONOCYTE / ABSOLUTE SEGMENTED NEUTROPHIL / BASOPHIL / EOSINOPHIL / ERYTHROCYTE COUNT / HEMATOCRIT / HEMOGLOBIN / LEUKOCYTE COUNT / LYMPHOCYTE / MEAN CORPUSCULAR HEMOGLOBIN / MEAN CORPUSCULAR HEMOGLOBIN CONCENTRATION / MEAN CORPUSCULAR VOLUME / MONOCYTE / NEUTROPHIL / NUCLEATED RED BLOOD CELLS / PLATELET COUNT: tissue Blood; for ALANINE AMINOTRANSFERASE / ALBUMIN / ALKALINE PHOSPHATASE / ASPARTATE AMINOTRANSFERASE / BLOOD UREA NITROGEN / CARBON DIOXIDE / CHLORIDE / CHOLESTEROL / CREATINE PHOSPHOKINASE / CREATININE / GLUCOSE / LACTATE DEHYDROGENASE / LIPASE / PHOSPHORUS / POTASSIUM / SODIUM / TOTAL BILIRUBIN / TOTAL PROTEIN / URIC ACID: tissue Plasma
[1] = 0 mg/kg, 72 h, dose level Control, time 3 day
[2] = 0 mg/kg, 120 h, dose level Control, time 5 day
[3] = 28 mg/kg, 72 h, dose level Low, time 3 day

Compound: Cn1cc[nH]c1=S [METHIMAZOLE]
- ABSOLUTE BASOPHIL [1]: 0 CELLS/uL
- ABSOLUTE EOSINOPHIL [1]: 0 CELLS/uL
- ABSOLUTE LYMPHOCYTE [1]: 8482.5 CELLS/uL
- ABSOLUTE MONOCYTE [1]: 63.83 CELLS/uL
- ABSOLUTE SEGMENTED NEUTROPHIL [1]: 887 CELLS/uL
- BASOPHIL [1]: 0%
- EOSINOPHIL [1]: 0%
- ERYTHROCYTE COUNT [1]: 5.49 x10E6/uL
- HEMATOCRIT [1]: 34.5%
- HEMOGLOBIN [1]: 13.33 G/DL
- LEUKOCYTE COUNT [1]: 9.43 x10E3/uL
- LYMPHOCYTE [1]: 90.17%
- MEAN CORPUSCULAR HEMOGLOBIN [1]: 24.3 pg
- MEAN CORPUSCULAR HEMOGLOBIN CONCENTRATION [1]: 38.63 G/DL
- MEAN CORPUSCULAR VOLUME [1]: 62.88 fL
- MONOCYTE [1]: 0.67%
- NEUTROPHIL [1]: 9.17%
- NUCLEATED RED BLOOD CELLS [1]: 0.67 /100WBC
- PLATELET COUNT [1]: 1022.83 x10E3/uL
- ALANINE AMINOTRANSFERASE [1]: 50.5 u/L
- ALBUMIN [1]: 4.08 G/DL
- ALKALINE PHOSPHATASE [1]: 368.33 u/L
- ASPARTATE AMINOTRANSFERASE [1]: 87.5 u/L
- BLOOD UREA NITROGEN [1]: 12.83 mg/dL
- CARBON DIOXIDE [1]: 32.83 mmol/L
- CHLORIDE [1]: 99.67 MEQ/L
- CHOLESTEROL [1]: 79.67 mg/dL
- CREATINE PHOSPHOKINASE [1]: 585 u/L
- CREATININE [1]: 0.22 mg/dL
- GLUCOSE [1]: 135.67 mg/dL
- LACTATE DEHYDROGENASE [1]: 171 u/L
- LIPASE [1]: 9.5 u/L
- PHOSPHORUS [1]: 11.18 mg/dL
- POTASSIUM [1]: 6.25 MEQ/L
- SODIUM [1]: 144.87 MEQ/L
- TOTAL BILIRUBIN [1]: 0.2 mg/dL
- TOTAL PROTEIN [1]: 6.08 G/DL
- URIC ACID [1]: 0.65 mg/dL
- ABSOLUTE BASOPHIL [2]: 0 CELLS/uL
- ABSOLUTE EOSINOPHIL [2]: 14.5 CELLS/uL
- ABSOLUTE LYMPHOCYTE [2]: 7596.17 CELLS/uL
- ABSOLUTE MONOCYTE [2]: 69.67 CELLS/uL
- ABSOLUTE SEGMENTED NEUTROPHIL [2]: 503 CELLS/uL
- BASOPHIL [2]: 0%
- EOSINOPHIL [2]: 0.17%
- ERYTHROCYTE COUNT [2]: 5.49 x10E6/uL
- HEMATOCRIT [2]: 34.72%
- HEMOGLOBIN [2]: 13.47 G/DL
- LEUKOCYTE COUNT [2]: 8.18 x10E3/uL
- LYMPHOCYTE [2]: 92.17%
- MEAN CORPUSCULAR HEMOGLOBIN [2]: 24.57 pg
- MEAN CORPUSCULAR HEMOGLOBIN CONCENTRATION [2]: 38.82 G/DL
- MEAN CORPUSCULAR VOLUME [2]: 63.3 fL
- MONOCYTE [2]: 1%
- NEUTROPHIL [2]: 6.67%
- NUCLEATED RED BLOOD CELLS [2]: 0 /100WBC
- PLATELET COUNT [2]: 1141 x10E3/uL
- ALANINE AMINOTRANSFERASE [2]: 48.33 u/L
- ALBUMIN [2]: 4.07 G/DL
- ALKALINE PHOSPHATASE [2]: 395.67 u/L
- ASPARTATE AMINOTRANSFERASE [2]: 85.67 u/L
- BLOOD UREA NITROGEN [2]: 15.83 mg/dL
- CARBON DIOXIDE [2]: 31.33 mmol/L
- CHLORIDE [2]: 100.83 MEQ/L
- CHOLESTEROL [2]: 62.33 mg/dL
- CREATINE PHOSPHOKINASE [2]: 248.33 u/L
- CREATININE [2]: 0.2 mg/dL
- GLUCOSE [2]: 135.67 mg/dL
- LACTATE DEHYDROGENASE [2]: 141.33 u/L
- LIPASE [2]: 9.5 u/L
- PHOSPHORUS [2]: 10.73 mg/dL
- POTASSIUM [2]: 6.07 MEQ/L
- SODIUM [2]: 145.35 MEQ/L
- TOTAL BILIRUBIN [2]: 0.22 mg/dL
- TOTAL PROTEIN [2]: 6.12 G/DL
- URIC ACID [2]: 0.63 mg/dL
- ABSOLUTE BASOPHIL [3]: 0 CELLS/uL
- ABSOLUTE EOSINOPHIL [3]: 0 CELLS/uL
- ABSOLUTE LYMPHOCYTE [3]: 8790 CELLS/uL
- ABSOLUTE MONOCYTE [3]: 67.33 CELLS/uL
- ABSOLUTE SEGMENTED NEUTROPHIL [3]: 776 CELLS/uL
- BASOPHIL [3]: 0%
- EOSINOPHIL [3]: 0%
- ERYTHROCYTE COUNT [3]: 5.45 x10E6/uL
- HEMATOCRIT [3]: 33.93%
- HEMOGLOBIN [3]: 13.23 G/DL
- LEUKOCYTE COUNT [3]: 9.63 x10E3/uL
- LYMPHOCYTE [3]: 91.33%
- MEAN CORPUSCULAR HEMOGLOBIN [3]: 24.3 pg
- MEAN CORPUSCULAR HEMOGLOBIN CONCENTRATION [3]: 39 G/DL
- MEAN CORPUSCULAR VOLUME [3]: 62.37 fL
- MONOCYTE [3]: 0.67%
- NEUTROPHIL [3]: 8%
- NUCLEATED RED BLOOD CELLS [3]: 0.33 /100WBC
- PLATELET COUNT [3]: 926 x10E3/uL
- ALANINE AMINOTRANSFERASE [3]: 53.33 u/L
- ALBUMIN [3]: 4.17 G/DL
- ALKALINE PHOSPHATASE [3]: 410.67 u/L
- ASPARTATE AMINOTRANSFERASE [3]: 78 u/L
- BLOOD UREA NITROGEN [3]: 11.33 mg/dL
- CARBON DIOXIDE [3]: 33 mmol/L
- CHLORIDE [3]: 98.67 MEQ/L
- CHOLESTEROL [3]: 91.33 mg/dL
- CREATINE PHOSPHOKINASE [3]: 269.33 u/L
- CREATININE [3]: 0.34 mg/dL
- GLUCOSE [3]: 123 mg/dL
- LACTATE DEHYDROGENASE [3]: 147.67 u/L
- LIPASE [3]: 11 u/L
- PHOSPHORUS [3]: 10.97 mg/dL
- POTASSIUM [3]: 6.8 MEQ/L
- SODIUM [3]: 143.6 MEQ/L
- TOTAL BILIRUBIN [3]: 0.23 mg/dL
- TOTAL PROTEIN [3]: 6.13 G/DL
- URIC ACID [3]: 0.8 mg/dL
